In patent publication US20260199284A1, “SPECIFIC VASH COMPOUNDS (SVC) INHIBITORS FOR HEART DISEASES” (MT ACT, priority 2023, published 2026):
“Also recorded” adds a separate entry of the source.

Legend:
[1] = system: cardiomyocytes of obese ZSF1 rats; assay: Unloaded shortening contractility of HFpEF myocytes; type: cell-based, rat; details: 30-weeks aged obese ZSF1 rats, 2-hours treatment
Protocol: FIG. 16: Improved contraction and relaxation kinetics of HFpEF myocytes during unloaded shortening upon VASH inhibition or TTL overexpression in primary cardiomyocytes isolated from WKY, ZSF1-Lean, or ZSF1 Obese rats. A) Contraction amplitude, B) contraction time, and C) relaxation time in isolated rat cardiomyocytes. n=~90 myocytes per group from N=3 ZSF1 Lean or Obese rats; n=60 myocytes from N=2 WKY rats. Two-way ANOVA with factors of genotype and treatment.
Contractility was measured in a custom-fabricated cell chamber (IonOptix) mounted on an LSM Zeiss 880 inverted confocal microscope using either a 40 or 63× oil 1.4 numerical aperture objective and transmitted light camera (IonOptix MyoCam-S). Experiments were conducted at room temperature and field stimulation was provided at 1.0 Hz with a cell stimulator (MyoPacer, IonOptix). After 10-30 seconds of pacing to achieve steady state, five traces were recorded and analyzed. Sarcomere length was measured optically by Fourier transform analysis (IonWizard, IonOptix).

[2] = system: primary cardiomyocytes isolated from ZSF1-Lean or ZSF1 Obese rats; assay: Cardiomyocyte stretch longitudinal stiffness; type: cell-based, rat; details: 10% strain
Protocol: FIG. 18: Reduced longitudinal stiffness upon VASH inhibition in primary cardiomyocytes isolated from ZSF1-Lean or ZSF1 Obese rats. A) Diastolic Stiffness (elastic modulus at the initial time of peak strain) upon a 10%, 200 ms strain along the long-axis of an isolated cardiomyocyte; B) Stead state stiffness upon strain and hold, and C) stress relaxation (indicator of viscoelasticity) in ZSF1-Lean and Obese cardiomyocytes.
Either freshly isolated or cultured myocytes were diluted to a sparse density (~10×) into a large (22×50 mm) glass bottom petri dish coated with BSA to prevent myocyte adhesion with Normal Tyrodes solution. A small aliquot of Myotak™ was freshly thawed and a 1.5 uL droplet was placed in a dry area of the petri dish and allowed to polymerize (2-3 min). When the droplet had become “tacky” laser etched glass rods (Ion Optix LLC) were lowered into the solution several times to create a thin coating of Myotak which was allowed to dry for 90 seconds before the probes were submersed into the cell-containing bath. […] The Myostretcher apparatus (Ion Optix LLC) was used to stretch myocytes by roughly 10% over either a 200 ms (diastolic) or 5 s (slow) interval while force and sarcomere length were recorded using the Ion Wizard software and MyoCam imaging system (live FFT). […]

[3] = system: human adult cardiomyocytes; assay: Western blot of tubulin detyrosination and acetylation in human adult cardiomyocytes; type: cell-based
Protocol: FIG. 33: human adult cardiomyocytes are treated with vehicle or SVC-01 (inhibitor). Protein lysates are analysed by western blot to evaluate the level of tubulin detyrosination and acetylation.
Specificity of SVC-01 was assayed using both human VASH1 and VASH2 recombinant enzymes. […] Finally, to ensure that regulation of other genes involved in the detyrosination-tyrosination cycle is not affected, we analysed gene expression of all relevant and associated genes following treatment with SVC-02 in adult human cardiomyocytes. We found no alteration of VASH1, VASH2, MATCAP, TTL or SVBP gene expression between vehicle control and SVC-02 treated cells (FIG. 34).

Sprague Dawley rats = assay: Myocardial tubulin detyrosination after IV injection, western blot; type: in vivo, rat; details: single injection IV, 8 weeks old Sprague Dawley rats
Description: B) Quantification of detyrosination levels (D1/alpha-tubulin ratio) in vehicle (n=4) and VASHi-treated rats (n=3).
For efficacy testing we presented SVC_01 to primary cardiomyocytes isolated from Sprague Dawley rats. […] Next, we performed functional studies by measuring key cardiomyocytes parameters including resting, fractional shortening, contraction time and relaxation time. […] The ZSF1 rat model is a hybrid rat obtained by a cross between a ZDF female and an SHHF male rat. This model is an established HFpEF rat model. Obese ZSF1 (O—ZSF1) hybrid rats are compound heterozygote with two different mutated alleles coding defective leptin receptor, resulting in loss of the receptor function. Thus, these animals have increased food intake and develop pronounced features of obesity, diabetes, and resultant HFpEF. […] We performed a western blot analysis from myocardial tissue prepared from Wistar Kyoto (WKY), ZSF1 lean and ZSF1 obese rats (FIG. 14). In line with previously published data of the role of microtubule densification and tubulin detyrosination, we found an increase in both total tubulin as well as detyrosinated tubulin in myocardial tissue of ZSF1-obese rats compared to the lean and WKY controls. […] Similar results were observed by assessment of the transverse stiffness. […]

Structure (SMILES) | contraction and relaxation kinetics [1] | viscoelastic longitudinal stiffness [2] | level of tubulin acetylation [3] | level of tubulin detyrosination [3] | detyrosinated tubulin in myocardial tissue (Sprague Dawley rats)
O=C(O)CCC[C@H](NC(=O)[C@H]1O[C@@H]1C(=O)C[C@@H](Cc1ccc(OCc2ccccc2)cc1)C(=O)O)C(=O)NCCc1ccccc1 [SVC_01] | Both contraction and relaxation kinetics were improved | viscoelastic longitudinal stiffness is reduced | did not affect the level of tubulin acetylation; also recorded: remained unchanged | significantly reduces the level of tubulin detyrosination; also recorded: significant reduction of tubulin detyrosination | 
CCOC(=O)[C@H](Cc1ccc(OCC)cc1)NC(=O)[C@H]1O[C@@H]1C(=O)N[C@@H](Cc1ccc(OCC)cc1)C(=O)OCC [SVC_02] |  |  |  |  | efficient reduction in detyrosinated tubulin
